{
  "source": "patent US4570013A",
  "about": "“Biphenylylalkanoic acid derivatives, methods of preparation and pharmaceutical compositions therefrom” (Dr. L. Zambeletti S.p.A., priority 1983, dated 1986)",
  "key": {"[1]": {"system": "Hyperthermia caused by brewer's yeast in rats", "assay": "brewer's yeast hyperthermia (method of C. Winter), antipyretic activity", "assay_type": "in vivo", "details": "for ED50: Rattus norvegicus, po, rats, os, read-out: Antipyretic activity (temperature increase by brewer's yeast, in rats) ED50", "from_the_text": "The antipyretic activity has been studied according to the method of C. Winter, Toxicol. and Appl. Pharmacol., 5, 247 (1963), in rats, by determining the ability of the substance to reduce the increase of body temperature caused by the subcutaneous administration of brewer's yeast."}, "[2]": {"system": "writhings caused by 2-phenylparabenzoquinone in mice", "assay": "writhing test (method of Siegmund), 2-phenylparabenzoquinone, analgesic activity", "assay_type": "in vivo, Swiss mice", "details": "for ED50: Mus musculus, po; for Contorsions % (change vs controls) / No. Contorsions: orally at ED50: biphenylylacetic acid 12, Ia 32 mg/kg", "from_the_text": "The analgesic activity has been studied according to the method described by Siegmund (E. Siegmund et al, Proc. Soc. Exptl. Biol. Med., 95, 729 (1957)), according to which the algogenic stimulus consists of the intraperitoneal injection of 2-phenylparabenzoquinone and the algesia manifests itself in repeated abdominal contractions with an extension of the rear limbs and contorsions of the body (\"writhing test\")."}, "[3]": {"assay": "in vivo", "details": "rat, po"}, "[4]": {"system": "oedema induced in the rats' paw by intradermic injection of carrageenin", "assay": "carrageenin-induced paw oedema (method of Winter), antiinflammatory activity", "assay_type": "in vivo", "details": "Rattus norvegicus, po, os, read-out: Antiinflammatory activity (oedema caused by carrageenin in rats) ED50"}, "[5]": {"assay": "gastrolesive action after single doses", "details": "rat, in vivo, po"}, "[6]": {"details": "read-out: Analgesic activity (against pain caused by 2-phenyl-p-benzo-quinone in mice) ED50"}},
  "note": "Where two headings read alike, the source gives them in different places.",
  "data": [
    {"smiles": "O=C(Cc1ccc(-c2ccccc2)cc1)Nc1ccccn1", "note": "[Diphenpyramide, N-2-pyridinyl-(1,1'-biphenyl)-4-acetamide]", "values": [
      {"measurement": "ED50", "setting": "[1]", "value": 22.5, "unit": "mg/kg"},
      {"measurement": "ED50", "setting": "[2]; [6]", "value": 97, "unit": "mg/kg"},
      {"measurement": "TD50", "setting": "[3]", "value": 76, "unit": "mg/kg"},
      {"measurement": "ED50", "setting": "[4]", "value": 19.9, "unit": "mg/kg"}
    ]},
    {"smiles": "O=C(O)Cc1ccc(-c2ccccc2)cc1", "note": "[reference compound]", "values": [
      {"measurement": "Temperature change Δt after administration of the substance", "setting": "[1]; 3 mg/kg os, 1 h", "value": -0.48, "unit": "°C"},
      {"measurement": "Temperature after administration of the substance, t", "setting": "[1]; 3 mg/kg os, 2 h", "value": "37.81±0.05", "unit": "°C"},
      {"measurement": "Temperature change Δt after administration of the substance", "setting": "[1]; 3 mg/kg os, 2 h", "value": -0.65, "unit": "°C"},
      {"measurement": "P/S, ratio of protected animals with respect to total screened animals", "setting": "[1]; 3 mg/kg os, 3 h", "value": "2/10"},
      {"measurement": "Temperature after administration of the substance, t", "setting": "[1]; 3 mg/kg os, 3 h", "value": "37.69±0.08", "unit": "°C"},
      {"measurement": "Temperature change Δt after administration of the substance", "setting": "[1]; 3 mg/kg os, 3 h", "value": -0.70, "unit": "°C"},
      {"measurement": "Temperature after administration of the substance, t", "setting": "[1]; 3 mg/kg os, 4 h", "value": "37.89±0.08", "unit": "°C"},
      {"measurement": "Temperature change Δt after administration of the substance", "setting": "[1]; 3 mg/kg os, 4 h", "value": -0.41, "unit": "°C"},
      {"measurement": "Temperature after administration of the substance, t", "setting": "[1]; 3 mg/kg os, 5 h", "value": "38.12±0.13", "unit": "°C"},
      {"measurement": "Temperature change Δt after administration of the substance", "setting": "[1]; 3 mg/kg os, 5 h", "value": -0.14, "unit": "°C"},
      {"measurement": "Temperature after administration of the substance, t", "setting": "[1]; 3 mg/kg os, 6 h", "value": "38.19±0.11", "unit": "°C"},
      {"measurement": "Temperature change Δt after administration of the substance", "setting": "[1]; 3 mg/kg os, 6 h", "value": -0.05, "unit": "°C"},
      {"measurement": "Temperature after administration of the substance, t", "setting": "[1]; 6 mg/kg os, 1 h", "value": "37.80±0.09", "unit": "°C"},
      {"measurement": "Temperature change Δt after administration of the substance", "setting": "[1]; 6 mg/kg os, 1 h", "value": -0.84, "unit": "°C"},
      {"measurement": "Temperature after administration of the substance, t", "setting": "[1]; 6 mg/kg os, 2 h", "value": "37.46±0.09", "unit": "°C"},
      {"measurement": "Temperature change Δt after administration of the substance", "setting": "[1]; 6 mg/kg os, 2 h", "value": -1.00, "unit": "°C"},
      {"measurement": "P/S, ratio of protected animals with respect to total screened animals", "setting": "[1]; 6 mg/kg os, 3 h", "value": "5/10"},
      {"measurement": "Temperature after administration of the substance, t", "setting": "[1]; 6 mg/kg os, 3 h", "value": "37.28±0.07", "unit": "°C"},
      {"measurement": "Temperature change Δt after administration of the substance", "setting": "[1]; 6 mg/kg os, 3 h", "value": -1.11, "unit": "°C"},
      {"measurement": "Temperature after administration of the substance, t", "setting": "[1]; 6 mg/kg os, 4 h", "value": "37.40±0.09", "unit": "°C"},
      {"measurement": "Temperature change Δt after administration of the substance", "setting": "[1]; 6 mg/kg os, 4 h", "value": -0.90, "unit": "°C"},
      {"measurement": "Temperature after administration of the substance, t", "setting": "[1]; 6 mg/kg os, 5 h", "value": "37.65±0.10", "unit": "°C"},
      {"measurement": "Temperature change Δt after administration of the substance", "setting": "[1]; 6 mg/kg os, 5 h", "value": -0.63, "unit": "°C"},
      {"measurement": "Temperature after administration of the substance, t", "setting": "[1]; 6 mg/kg os, 6 h", "value": "37.81±0.12", "unit": "°C"},
      {"measurement": "Temperature change Δt after administration of the substance", "setting": "[1]; 6 mg/kg os, 6 h", "value": -0.37, "unit": "°C"},
      {"measurement": "Temperature after administration of the substance, t", "setting": "[1]; 12 mg/kg os, 1 h", "value": "37.71±0.08", "unit": "°C"},
      {"measurement": "Temperature change Δt after administration of the substance", "setting": "[1]; 12 mg/kg os, 1 h", "value": -0.93, "unit": "°C"},
      {"measurement": "Temperature after administration of the substance, t", "setting": "[1]; 12 mg/kg os, 2 h", "value": "37.33±0.06", "unit": "°C"},
      {"measurement": "Temperature change Δt after administration of the substance", "setting": "[1]; 12 mg/kg os, 2 h", "value": -1.13, "unit": "°C"},
      {"measurement": "P/S, ratio of protected animals with respect to total screened animals", "setting": "[1]; 12 mg/kg os, 3 h", "value": "8/10"},
      {"measurement": "Temperature after administration of the substance, t", "setting": "[1]; 12 mg/kg os, 3 h", "value": "37.09±0.07", "unit": "°C"},
      {"measurement": "Temperature change Δt after administration of the substance", "setting": "[1]; 12 mg/kg os, 3 h", "value": -1.30, "unit": "°C"},
      {"measurement": "Temperature after administration of the substance, t", "setting": "[1]; 12 mg/kg os, 4 h", "value": "37.18±0.07", "unit": "°C"},
      {"measurement": "Temperature change Δt after administration of the substance", "setting": "[1]; 12 mg/kg os, 4 h", "value": -1.12, "unit": "°C"},
      {"measurement": "Temperature after administration of the substance, t", "setting": "[1]; 12 mg/kg os, 5 h", "value": "37.43±0.08", "unit": "°C"},
      {"measurement": "Temperature change Δt after administration of the substance", "setting": "[1]; 12 mg/kg os, 5 h", "value": -0.93, "unit": "°C"},
      {"measurement": "Temperature after administration of the substance, t", "setting": "[1]; 12 mg/kg os, 6 h", "value": 37.58, "unit": "°C"},
      {"measurement": "Temperature change Δt after administration of the substance", "setting": "[1]; 12 mg/kg os, 6 h", "value": -0.66, "unit": "°C"},
      {"measurement": "ED50", "setting": "[1]", "value": 6, "unit": "mg/kg"},
      {"measurement": "Contorsions % (change vs controls)", "setting": "[2]; 5 minutes", "value": -27, "unit": "%"},
      {"measurement": "No. Contorsions", "setting": "[2]; 5 minutes", "value": "33.4 ± 3.0"},
      {"measurement": "Contorsions % (change vs controls)", "setting": "[2]; 15 minutes", "value": -41, "unit": "%"},
      {"measurement": "No. Contorsions", "setting": "[2]; 15 minutes", "value": "31.0 ± 4.7"},
      {"measurement": "Contorsions % (change vs controls)", "setting": "[2]; 30 minutes", "value": -57, "unit": "%"},
      {"measurement": "No. Contorsions", "setting": "[2]; 30 minutes", "value": "21.3 ± 2.6"},
      {"measurement": "Contorsions % (change vs controls)", "setting": "[2]; 1 hour", "value": -49, "unit": "%"},
      {"measurement": "No. Contorsions", "setting": "[2]; 1 hour", "value": "25.6 ± 2.9"},
      {"measurement": "Contorsions % (change vs controls)", "setting": "[2]; 2 hours", "value": -42, "unit": "%"},
      {"measurement": "No. Contorsions", "setting": "[2]; 2 hours", "value": "25.1 ± 2.8"},
      {"measurement": "Contorsions % (change vs controls)", "setting": "[2]; 3 hours", "value": -47, "unit": "%"},
      {"measurement": "No. Contorsions", "setting": "[2]; 3 hours", "value": "26.0 ± 4.0"},
      {"measurement": "Contorsions % (change vs controls)", "setting": "[2]; 4 hours", "value": -28, "unit": "%"},
      {"measurement": "No. Contorsions", "setting": "[2]; 4 hours", "value": "34.9 ± 3.6"},
      {"measurement": "Contorsions % (change vs controls)", "setting": "[2]; 5 hours", "value": -1, "unit": "%"},
      {"measurement": "No. Contorsions", "setting": "[2]; 5 hours", "value": "45.0 ± 2.3"},
      {"measurement": "ED50", "setting": "[2]; mice, orally, read-out: ED50, analgesic activity (writhing test)", "value": 12, "unit": "mg/kg"},
      {"measurement": "TD50", "setting": "[3]", "value": 16.5, "unit": "mg/kg"},
      {"measurement": "ED50", "setting": "[4]", "value": 10.9, "unit": "mg/kg"}
    ]},
    {"smiles": "COc1ccc2cc(C(C)C(=O)O)ccc2c1", "note": "(stereo not drawn) [Naproxen, 6-methoxy-α-methyl-2-naphthaleneacetic acid, reference compound]", "values": [
      {"measurement": "ED50", "setting": "[1]", "value": 112, "unit": "mg/kg"},
      {"measurement": "ED50", "setting": "[2]; [6]", "value": 20, "unit": "mg/kg"},
      {"measurement": "TD50", "setting": "[5]", "value": 17, "unit": "mg/kg"},
      {"measurement": "ED50", "setting": "[4]", "value": 24, "unit": "mg/kg"}
    ]}
  ]
}
